In ChEMBL document CHEMBL1770111, “A series of structurally simple chloroquine chemosensitizing dibemethin derivatives that inhibit chloroquine transport by PfCRT” (Eur J Med Chem, 2011):
The source made the active and inactive calls. The rule behind the calls is not given here.

Tests used:
Plasmodium falciparum [1] = assay: Resistance modification index, ratio of IC50 for chloroquine in presence of compound to IC50 for chloroquine alone for chloroquine-resistant Plasmodium falciparum W2; assay type: functional
Plasmodium falciparum [2] = assay: Inhibition of chloroquine-resistant Plasmodium falciparum […] CRT expressed in Xenopus laevis oocytes assessed as [3H]-chloroquine uptake after 1 to 2 hrs; details: Oocyte
Plasmodium falciparum [3] = assay: Antiplasmodial activity against chloroquine-resistant Plasmodium falciparum W2 by parasite lactate dehydrogenase assay; assay type: functional, organism-based
Plasmodium falciparum [4] = assay: Resistance modification index, ratio of compound IC10 to chloroquine IC50 in presence of IC10 compound for chloroquine-resistant Plasmodium falciparum W2; assay type: functional
Plasmodium falciparum [5] = assay: Antiplasmodial activity against chloroquine-resistant Plasmodium falciparum W2 at 15.2 uM by parasite lactate dehydrogenase assay; assay type: functional, organism-based

| SMILES | Ratio IC50 (Plasmodium falciparum [1]) | IC50 (Plasmodium falciparum [2]; read-out: IC50) | IC10 (Plasmodium falciparum [3]) | IC50 (Plasmodium falciparum [3]) | Ratio IC50 (Plasmodium falciparum [4]) | IC50 (Plasmodium falciparum [2]) | inhibition (Plasmodium falciparum [5]) |
| --- | --- | --- | --- | --- | --- | --- | --- |
| CN(Cc1ccc(CNC=O)cc1)Cc1ccc(N(C)C)cc1 | 1.36 | 657 µM | 15.2 µM | 33 µM | 0.46 | – | – |
| CN(Cc1ccccc1)Cc1ccc(CN)cc1 | 0.24 | – | – | 29 µM | – | – | – |
| CN(Cc1ccccc1)Cc1ccccc1CNC=O | 0.75 | – | 1.7 µM | 11 µM | 0.44 | – | – |
| CN(Cc1ccc(CN)cc1)Cc1ccc(N(C)C)cc1 | 0.21 | – | – | 11.7 µM | – | – | – |
| CN(Cc1ccc(Cl)cc1)Cc1ccc(CNC=O)cc1 | 0.9 | – | 5.4 µM | 29 µM | 0.46 | – | – |
| CN(Cc1ccc(Cl)cc1)Cc1ccccc1CNC=O | 1.07 | – | 12 µM | 119 µM | 0.34 | – | – |
| COc1ccc(CN(C)Cc2cccc(CN)c2)cc1 | 0.25 | – | – | 6.8 µM | – | – | – |
| CN(Cc1ccc(Cl)cc1)Cc1ccccc1CN | 0.096 | – | – | 5.7 µM | – | – | – |
| COc1ccc(CN(C)Cc2ccccc2CN)cc1 | 0.35 | – | – | > 233 µM | – | – | – |
| CN(Cc1ccccc1)Cc1ccccc1CN | 0.03 | 24 µM | – | 4.1 µM | – | – | – |
| CN(Cc1ccc(Cl)cc1)Cc1ccc(CN)cc1 | 0.25 | 140 µM | – | 63 µM | – | – | – |
| COc1ccc(CN(C)Cc2cccc(CNC=O)c2)cc1 | 1.19 | – | 9 µM | 48 µM | 0.51 | – | – |
| CN(Cc1ccc(N(C)C)cc1)Cc1ccccc1CN | 0.36 | – | – | 37 µM | – | – | – |
| CN(Cc1ccccc1)Cc1cccc(CN)c1 | 0.08 | – | – | 2.8 µM | – | – | – |
| CN(Cc1ccccc1)Cc1cccc(CNC=O)c1 | 0.84 | – | 9.7 µM | 21 µM | 0.29 | – | – |
| CN(Cc1ccc(Cl)cc1)Cc1cccc(CN)c1 | 0.31 | 101 µM | – | 30 µM | – | – | – |
| CN(Cc1ccccc1)Cc1ccc(CNC=O)cc1 | 1.13 | – | 18 µM | 56 µM | 0.43 | – | – |
| CN(Cc1ccc(Cl)cc1)Cc1cccc(CNC=O)c1 | – | – | 4 µM | 16 µM | 0.51 | – | – |
| COc1ccc(CCN(C)CCCC(C#N)(c2ccc(OC)c(OC)c2)C(C)C)cc1OC (configuration not stated) [VERAPAMIL] | 0.26 | – | – | – | – | 30 µM | – |
| COc1ccc(CN(C)Cc2ccccc2CNC=O)cc1 | 1.22 | – | 12 µM | 29 µM | 0.32 | – | – |
| CN(Cc1ccc(N(C)C)cc1)Cc1cccc(CN)c1 | 0.24 | – | – | 30 µM | – | – | – |
| CN(Cc1ccc(N(C)C)cc1)Cc1ccccc1CNC=O | 1 | – | 15 µM | 42 µM | 0.49 | – | – |
| COc1ccc(CN(C)Cc2ccc(CNC=O)cc2)cc1 | 1.22 | – | 16 µM | 37 µM | 0.46 | – | – |
| COc1ccc(CN(C)Cc2ccc(CN)cc2)cc1 | 0.33 | – | – | 91 µM | – | – | – |
| CN(Cc1ccc(N(C)C)cc1)Cc1cccc(CNC=O)c1 | 0.62 | – | – | 17 µM | 1 | – | inactive |
